According to PubChem BioAssay AID1963432 (Molecular Pharmacology Branch, DTP, NCI, 2024):

Tested on: SYO-1 complex spheroid growth, percent test/control
Experiment: Anticancer human tumor SYO-1 cell line growth inhibition [Asc];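 note: compound exposure lasted 7 days after spheroids grew 3 days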;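 for viability, T/C: 100% = DMSO vehicle control viability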
Conditions: for IC50: curve of first compound; for viability, T/C: stronger effect = lower value
Method in brief: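 Complex solid-tumor spheroids incorporating human endothelial and mesenchymal stem cells received single agents or combinations over half-log dilution ranges anchored to clinical Cmax.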

Q: Which IC50 (second compound 0.00949 µM) does the source give for `CCN1CCN(Cc2ccc(Nc3ncc(F)c(-c4cc(F)c5nc(C)n(C(C)C)c5c4)n3)nc2)CC1` + CCN1C(C(=O)NC23CCC(C(=O)O)(CC2)CC3)C(c2cccc(Cl)c2F)C2(C(=O)Nc3cc(Cl)ccc32)C12CCCCC2 here?
A: > 1000 nM

Q: What about the IC50 (second compound 0.03 µM) of the same molecule?
A: > 1000 nM

Q: And the IC50 (second compound 0.0949 µM)?
A: 446 nM

Q: And the IC50 (second compound 0.3 µM)?
A: < 3.16 nM

Q: And the IC50 (second compound 0.949 µM)?
A: < 3.16 nM

Q: And the IC50 (second compound 3 µM)?
A: < 3.16 nM

Q: What about the viability, T/C (second compound 0.00949 µM, first compound 0.00316 µM) of the same molecule?
A: 105%

Q: What about the viability, T/C (second compound 0.00949 µM, first compound 0.01 µM) of the same molecule?
A: 105%

Q: And the viability, T/C (second compound 0.00949 µM, first compound 0.0316 µM)?
A: 116%

Q: What about the viability, T/C (second compound 0.00949 µM, first compound 0.1 µM) of the same molecule?
A: 119%

Q: And the viability, T/C (second compound 0.00949 µM, first compound 0.316 µM)?
A: 121%

Q: And the viability, T/C (second compound 0.00949 µM, first compound 1 µM)?
A: 102%

Q: And the viability, T/C (second compound 0.03 µM, first compound 0.00316 µM)?
A: 98.8%

Q: What about the viability, T/C (second compound 0.03 µM, first compound 0.01 µM) of the same molecule?
A: 101%

Q: And the viability, T/C (second compound 0.03 µM, first compound 0.0316 µM)?
A: 98.9%

Q: What about the viability, T/C (second compound 0.03 µM, first compound 0.1 µM) of the same molecule?
A: 117%

Q: And the viability, T/C (second compound 0.03 µM, first compound 0.316 µM)?
A: 106%

Q: And the viability, T/C (second compound 0.03 µM, first compound 1 µM)?
A: 73.1%

Q: And the viability, T/C (second compound 0.0949 µM, first compound 0.00316 µM)?
A: 87%

Q: What about the viability, T/C (second compound 0.0949 µM, first compound 0.01 µM) of the same molecule?
A: 85%

Q: What about the viability, T/C (second compound 0.0949 µM, first compound 0.0316 µM) of the same molecule?
A: 87.5%

Q: What about the viability, T/C (second compound 0.0949 µM, first compound 0.1 µM) of the same molecule?
A: 88.6%

Q: What about the viability, T/C (second compound 0.0949 µM, first compound 0.316 µM) of the same molecule?
A: 63%

Q: What about the viability, T/C (second compound 0.0949 µM, first compound 1 µM) of the same molecule?
A: 19.5%

Q: What about the viability, T/C (second compound 0.3 µM, first compound 0.00316 µM) of the same molecule?
A: 25.1%

Q: And the viability, T/C (second compound 0.3 µM, first compound 0.01 µM)?
A: 20.8%

Q: And the viability, T/C (second compound 0.3 µM, first compound 0.0316 µM)?
A: 20.6%

Q: What about the viability, T/C (second compound 0.3 µM, first compound 0.1 µM) of the same molecule?
A: 16.5%

Q: And the viability, T/C (second compound 0.3 µM, first compound 0.316 µM)?
A: 9.85%

Q: What about the viability, T/C (second compound 0.3 µM, first compound 1 µM) of the same molecule?
A: 2.81%

Q: What about the viability, T/C (second compound 0.949 µM, first compound 0.00316 µM) of the same molecule?
A: 2.61%

Q: And the viability, T/C (second compound 0.949 µM, first compound 0.01 µM)?
A: 2.87%

Q: What about the viability, T/C (second compound 0.949 µM, first compound 0.0316 µM) of the same molecule?
A: 2.98%

Q: What about the viability, T/C (second compound 0.949 µM, first compound 0.1 µM) of the same molecule?
A: 4.27%

Q: What about the viability, T/C (second compound 0.949 µM, first compound 0.316 µM) of the same molecule?
A: 2.21%

Q: And the viability, T/C (second compound 0.949 µM, first compound 1 µM)?
A: 1.42%

Q: And the viability, T/C (second compound 3 µM, first compound 0.00316 µM)?
A: 2.07%

Q: And the viability, T/C (second compound 3 µM, first compound 0.01 µM)?
A: 1.29%

Q: And the viability, T/C (second compound 3 µM, first compound 0.0316 µM)?
A: 2.77%

Q: What about the viability, T/C (second compound 3 µM, first compound 0.1 µM) of the same molecule?
A: 1.88%

Q: And the viability, T/C (second compound 3 µM, first compound 0.316 µM)?
A: 3.26%

Q: What about the viability, T/C (second compound 3 µM, first compound 1 µM) of the same molecule?
A: 2.37%
